From ChEMBL document CHEMBL1275471, “ISEcp1-mediated transposition of qnrB-like gene in Escherichia coli” (2008)
In brackets after ≈: the same amount, converted by molar mass.

Legend:
Type in all cases: functional
Escherichia coli [1] = assay: Antimicrobial activity against Escherichia coli R4525 expressing gyrA S83L and D87Y and parC S80I and E84G mutant gene by CLSI method
Escherichia coli [2] = assay: Antimicrobial activity against Escherichia coli J53 transconjugate by CLSI method
Escherichia coli [3] = assay: Antimicrobial activity against azide-resistant Escherichia coli J53 by CLSI method

Row | SMILES | MIC (Escherichia coli [1]) [µg/mL] | MIC (Escherichia coli [2]) [µg/mL] | MIC (Escherichia coli [3]) [µg/mL]
1 | CC1COc2c(N3CCN(C)CC3)c(F)cc3c(=O)c(C(=O)O)cn1c23 (stereo not drawn) [OFLOXACIN] | > 32 | – | –
2 | CCn1cc(C(=O)O)c(=O)c2cc(F)c(N3CCNCC3)cc21 [NORFLOXACIN] | > 256 | 1 (≈ 3.13 µM) | 0.12 (≈ 0.376 µM)
3 | CCn1cc(C(=O)O)c(=O)c2ccc(C)nc21 [NALIDIXIC ACID] | > 256 | 32 (≈ 138 µM) | 4 (≈ 17.2 µM)
4 | CCN1CCN(c2cc3c(cc2F)c(=O)c(C(=O)O)cn3C2CC2)CC1 [ENROFLOXACIN] | > 32 | 0.5 (≈ 1.39 µM) | 0.01 (≈ 0.0278 µM)
5 | C[C@@H]1CN(c2c(F)c(N)c3c(=O)c(C(=O)O)cn(C4CC4)c3c2F)C[C@H](C)N1 [SPARFLOXACIN] | > 32 | 1 (≈ 2.55 µM) | 0.01 (≈ 0.0255 µM)
